# Results taken from patent US6525001B1, “Substituted pyrimidine and pyridine herbicides” (Mid-American Commercialization Corporation, priority 1997, dated 2003).
# Legend:
# Type in all cases: in vivo
# Set-up in all cases: key: 0 is no effect; 10 is complete control
# corn (Zea mays) = assay: Test B pre-/postemergence; details: for Corn plant response rating: Preemergence
# Summary of the method: (§1)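 Response scores run from 0, meaning no effect, to 10, meaning complete control, assigned by eye relative to controls twelve to sixteen days after spraying. Treatment was both preemergence on planted seed and postemergence on plants at the 1- to 4-leaf stage.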
# [1] = test system: giant foxtail (Setaria faberii); assay: Test B pre-/postemergence
# Summary of the method: as §1
# [2] = test system: pigweed (Amaranthus retroflexus); assay: Test B pre-/postemergence
# Summary of the method: as §1
# [3] = test system: blackgrass (Alopecurus myosuroides); assay: Test B pre-/postemergence; details: for Blackgrass plant response rating: Preemergence
# Summary of the method: as §1
# rape (Brassica napus) = assay: Test B pre-/postemergence
# Summary of the method: as §1
# [4] = test system: cocklebur (Xanthium strumarium); assay: Test B pre-/postemergence; details: for Cocklebur plant response rating: Preemergence
# Summary of the method: as §1
# [5] = test system: bedstraw (Galium aparine); assay: Test B pre-/postemergence; details: for Bedstraw plant response rating: Preemergence
# Summary of the method: as §1
# wild oat (Avena fatua) = assay: Test B pre-/postemergence
# Summary of the method: as §1
# [6] = test system: velvetleaf (Abutilon theophrasti); assay: Test B pre-/postemergence
# Summary of the method: as §1
# [7] = test system: sugar beet (Beta vulgaris); assay: Test B pre-/postemergence
# Summary of the method: as §1
# soybean (Glycine max) = assay: Test B pre-/postemergence
# Summary of the method: as §1
# [8] = test system: broadleaf signalgrass (Brachiaria decumbens); assay: Test B pre-/postemergence; details: for B. signalgrass plant response rating: Preemergence
# Summary of the method: as §1
# [9] = test system: purple nutsedge (Cyperus rotundus); assay: Test B pre-/postemergence
# Summary of the method: as §1
# [10] = test system: momingglory (Ipomoea hederacea); assay: Test B pre-/postemergence
# Summary of the method: as §1
# [11] = test system: wheat (Triticum aestivum); assay: Test B pre-/postemergence
# Summary of the method: as §1
# [12] = test system: crabgrass (Digitaria sanguinalis); assay: Test B pre-/postemergence; details: for Crabgrass plant response rating: Preemergence
# Summary of the method: as §1
# [13] = test system: duck salad (Heteranthera limosa); assay: Test B flood test
# Summary of the method: (§2)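 Each value is a visual injury score relative to controls, with 10 meaning complete control and 0 no effect. Evaluation took place twelve to sixteen days after the 2-leaf-stage plants were treated and kept in the greenhouse.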
# rice (Oryza sativa) = assay: Test B flood test
# Summary of the method: as §2
# [14] = test system: bamyardgrass (Echinochloa crus-galli); assay: Test B flood test
# Summary of the method: as §2
# [15] = test system: smallflower flatsedge (Cyperus difformis); assay: Test B flood test
# Summary of the method: as §2
# [16] = Rate 250 g/ha, Postemergence (so in the source)
# [17] = Rate 62 g/ha, Postemergence (flood test)
# [18] = Rate 125 g/ha, Postemergence, flood test
# [19] = Rate 250 g/ha, Postemergence (flood test species)
# [20] = Rate 125 g/ha, Postemergence section (flood test species)
smiles,measurement,setting,value
Cc1cnc(-c2ccccc2F)nc1Cc1cccc(C#N)c1 [Compound 37],"Plant response rating, Corn","corn (Zea mays); Rate 62 g/ha, Postemergence",1
same,Corn plant response rating,corn (Zea mays); Rate 62 g/ha,0
same,"Plant response rating, Corn","corn (Zea mays); Rate 125 g/ha, Postemergence",1
same,Corn plant response rating,corn (Zea mays); Rate 125 g/ha,0
same,"Plant response rating, Corn","corn (Zea mays); Rate 250 g/ha, Postemergence",1
same,"Plant response rating, Corn",corn (Zea mays); [16],0
same,"Plant response rating, Giant foxtail","[1]; Rate 62 g/ha, Postemergence",0
same,Giant foxtail plant response rating,"[1]; Rate 62 g/ha, Preemergence",0
same,Giant foxtail plant response rating,"[1]; Rate 125 g/ha, Postemergence",0
same,Giant foxtail plant response rating,"[1]; Rate 125 g/ha, Preemergence",0
same,"Plant response rating, Giant foxtail","[1]; Rate 250 g/ha, Postemergence",1
same,"Plant response rating, Giant foxtail",[1]; [16],0
same,"Plant response rating, Redroot pigweed","[2]; Rate 62 g/ha, Postemergence",1
same,Redroot pigweed plant response rating,"[2]; Rate 62 g/ha, Preemergence",0
same,Redroot pigweed plant response rating,"[2]; Rate 125 g/ha, Postemergence",1
same,Redroot pigweed plant response rating,"[2]; Rate 125 g/ha, Preemergence",0
same,"Plant response rating, Redroot pigweed","[2]; Rate 250 g/ha, Postemergence",7
same,"Plant response rating, Redroot pigweed",[2]; [16],0
same,"Plant response rating, Blackgrass","[3]; Rate 62 g/ha, Postemergence",0
same,Blackgrass plant response rating,[3]; Rate 62 g/ha,0
same,"Plant response rating, Blackgrass","[3]; Rate 125 g/ha, Postemergence",0
same,Blackgrass plant response rating,[3]; Rate 125 g/ha,0
same,"Plant response rating, Blackgrass","[3]; Rate 250 g/ha, Postemergence",0
same,"Plant response rating, Blackgrass",[3]; [16],0
same,"Plant response rating, Rape","rape (Brassica napus); Rate 62 g/ha, Postemergence",1
same,Rape plant response rating,"rape (Brassica napus); Rate 62 g/ha, Preemergence",0
same,Rape plant response rating,"rape (Brassica napus); Rate 125 g/ha, Postemergence",3
same,Rape plant response rating,"rape (Brassica napus); Rate 125 g/ha, Preemergence",0
same,"Plant response rating, Rape","rape (Brassica napus); Rate 250 g/ha, Postemergence",4
same,"Plant response rating, Rape",rape (Brassica napus); [16],0
same,"Plant response rating, Cocklebur","[4]; Rate 62 g/ha, Postemergence",1
same,Cocklebur plant response rating,[4]; Rate 62 g/ha,0
same,"Plant response rating, Cocklebur","[4]; Rate 125 g/ha, Postemergence",2
same,Cocklebur plant response rating,[4]; Rate 125 g/ha,0
same,"Plant response rating, Cocklebur","[4]; Rate 250 g/ha, Postemergence",3
same,"Plant response rating, Cocklebur",[4]; [16],0
same,"Plant response rating, Bedstraw","[5]; Rate 62 g/ha, Postemergence",1
same,Bedstraw plant response rating,[5]; Rate 62 g/ha,0
same,"Plant response rating, Bedstraw","[5]; Rate 125 g/ha, Postemergence",1
same,Bedstraw plant response rating,[5]; Rate 125 g/ha,0
same,"Plant response rating, Bedstraw",[5]; [16],0
same,Wild oats plant response rating,"wild oat (Avena fatua); Rate 62 g/ha, Postemergence",0
same,Wild oats plant response rating,"wild oat (Avena fatua); Rate 62 g/ha, Preemergence",0
same,Wild oats plant response rating,"wild oat (Avena fatua); Rate 125 g/ha, Postemergence",0
same,"Plant response rating, Wild oats","wild oat (Avena fatua); Rate 125 g/ha, Preemergence",0
same,"Plant response rating, Wild oats","wild oat (Avena fatua); Rate 250 g/ha, Postemergence",0
same,"Plant response rating, Wild oats",wild oat (Avena fatua); [16],0
same,"Plant response rating, Velvetleaf","[6]; Rate 62 g/ha, Postemergence",0
same,Velvetleaf plant response rating,"[6]; Rate 62 g/ha, Preemergence",0
same,Velvetleaf plant response rating,"[6]; Rate 125 g/ha, Postemergence",0
same,"Plant response rating, Velvetleaf","[6]; Rate 125 g/ha, Preemergence",0
same,"Plant response rating, Velvetleaf","[6]; Rate 250 g/ha, Postemergence",1
same,"Plant response rating, Velvetleaf",[6]; [16],0
same,"Plant response rating, Sugarbeets","[7]; Rate 62 g/ha, Postemergence",1
same,Sugarbeets plant response rating,"[7]; Rate 62 g/ha, Preemergence",0
same,Sugarbeets plant response rating,"[7]; Rate 125 g/ha, Postemergence",5
same,"Plant response rating, Sugarbeets","[7]; Rate 125 g/ha, Preemergence",0
same,"Plant response rating, Sugarbeets","[7]; Rate 250 g/ha, Postemergence",5
same,"Plant response rating, Sugarbeets",[7]; [16],0
same,"Plant response rating, Soybean","soybean (Glycine max); Rate 62 g/ha, Postemergence",0
same,Soybean plant response rating,"soybean (Glycine max); Rate 62 g/ha, Preemergence",0
same,Soybean plant response rating,"soybean (Glycine max); Rate 125 g/ha, Postemergence",0
same,"Plant response rating, Soybean","soybean (Glycine max); Rate 125 g/ha, Preemergence",0
same,"Plant response rating, Soybean","soybean (Glycine max); Rate 250 g/ha, Postemergence",0
same,"Plant response rating, Soybean",soybean (Glycine max); [16],0
same,"Plant response rating, B. signalgrass","[8]; Rate 62 g/ha, Postemergence",0
same,B. signalgrass plant response rating,[8]; Rate 62 g/ha,0
same,"Plant response rating, B. signalgrass","[8]; Rate 125 g/ha, Postemergence",0
same,B. signalgrass plant response rating,[8]; Rate 125 g/ha,0
same,"Plant response rating, B. signalgrass","[8]; Rate 250 g/ha, Postemergence",0
same,"Plant response rating, B. signalgrass","[8]; Rate 250 g/ha, Postemergence as printed in head r139 (second section for compounds 26-50)",0
same,"Plant response rating, Nutsedge","[9]; Rate 62 g/ha, Postemergence",0
same,Nutsedge plant response rating,"[9]; Rate 62 g/ha, Preemergence",0
same,Nutsedge plant response rating,"[9]; Rate 125 g/ha, Postemergence",0
same,Nutsedge plant response rating,"[9]; Rate 125 g/ha, Preemergence",0
same,"Plant response rating, Nutsedge","[9]; Rate 250 g/ha, Postemergence",0
same,"Plant response rating, Nutsedge",[9]; [16],0
same,"Plant response rating, Morningglory","[10]; Rate 62 g/ha, Postemergence",1
same,Morningglory plant response rating,"[10]; Rate 62 g/ha, Preemergence",0
same,Morningglory plant response rating,"[10]; Rate 125 g/ha, Postemergence",1
same,Morningglory plant response rating,"[10]; Rate 125 g/ha, Preemergence",0
same,"Plant response rating, Morningglory","[10]; Rate 250 g/ha, Postemergence",1
same,"Plant response rating, Morningglory",[10]; [16],0
same,Wheat plant response rating,"[11]; Rate 62 g/ha, Postemergence",0
same,Wheat plant response rating,"[11]; Rate 62 g/ha, Preemergence",0
same,Wheat plant response rating,"[11]; Rate 125 g/ha, Postemergence",0
same,"Plant response rating, Wheat","[11]; Rate 125 g/ha, Preemergence",0
same,"Plant response rating, Wheat","[11]; Rate 250 g/ha, Postemergence",0
same,"Plant response rating, Wheat",[11]; [16],0
same,"Plant response rating, Crabgrass","[12]; Rate 62 g/ha, Postemergence",0
same,Crabgrass plant response rating,[12]; Rate 62 g/ha,0
same,"Plant response rating, Crabgrass","[12]; Rate 125 g/ha, Postemergence",0
same,Crabgrass plant response rating,[12]; Rate 125 g/ha,0
same,"Plant response rating, Crabgrass","[12]; Rate 250 g/ha, Postemergence",1
same,"Plant response rating, Crabgrass",[12]; [16],0
same,"Plant response rating, Ducksalad",[13]; [17],0
same,"Plant response rating, Ducksalad",[13]; [18],0
same,"Plant response rating, Ducksalad",[13]; [19],0
same,"Plant response rating, Rice",rice (Oryza sativa); [17],0
same,Rice plant response rating,rice (Oryza sativa); [20],0
same,"Plant response rating, Rice",rice (Oryza sativa); [19],0
same,"Plant response rating, Barnyardgrass",[14]; [17],0
same,"Plant response rating, Barnyardgrass",[14]; [18],0
same,"Plant response rating, Barnyardgrass",[14]; [19],0
same,"Plant response rating, S. Flatsedge",[15]; [17],0
same,S. Flatsedge plant response rating,[15]; [20],0
same,"Plant response rating, S. Flatsedge",[15]; [19],0
